Results taken from PubChem BioAssay (NCI).
Several values for one entry are separate records, joined by “and”; a condition that tells them apart may be missing. Equal entries are not always repeated.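 Five compound concentrations were applied to cells in 96-well plates for 48 hours; endpoints were derived by simple linear interpolation of the resulting dose-response curve. GI50 is the concentration that inhibits growth by half. TGI marks complete inhibition of growth.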

Tests used:
Assay in all cases: DTP human tumour cell line panel, 48 h
UACC-62 melanoma = system: UACC-62 melanoma
SK-MEL-2 melanoma = system: SK-MEL-2 melanoma
SNB-19 CNS = system: SNB-19 CNS
NCI-H522 lung = system: NCI-H522 lung
DU-145 prostate = system: DU-145 prostate
MDA-MB-435 = system: MDA-MB-435
SK-MEL-5 melanoma = system: SK-MEL-5 melanoma
CAKI-1 renal = system: CAKI-1 renal
ACHN renal = system: ACHN renal
NCI-H226 lung = system: NCI-H226 lung

Compound	GI50 (UACC-62 melanoma)	TGI (UACC-62 melanoma) [µM]	GI50 (SK-MEL-2 melanoma)	TGI (SK-MEL-2 melanoma) [µM]	GI50 (SNB-19 CNS)	TGI (SNB-19 CNS) [µM]	GI50 (NCI-H522 lung)	TGI (NCI-H522 lung) [µM]	GI50 (DU-145 prostate)	TGI (DU-145 prostate) [µM]	GI50 (MDA-MB-435)	TGI (MDA-MB-435)	GI50 (SK-MEL-5 melanoma)	TGI (SK-MEL-5 melanoma)	GI50 (CAKI-1 renal) [µM]	TGI (CAKI-1 renal) [µM]	GI50 (ACHN renal)	TGI (ACHN renal) [µM]	GI50 (NCI-H226 lung) [µM]	TGI (NCI-H226 lung) [µM]
CC(=O)/C(Br)=C/c1ccc(Br)o1	14 µM	28.3	8.59 µM	23.9	26 µM	> 59.6	2.78 µM	8.14	6.19 µM	18.3	8.51 µM	23.2 µM	10.3 µM	22.6 µM	6.05	12.4	9.5 µM	22.2	12.7	26.2
O=C1C=C(OCC=C(C(F)(F)F)C(F)(F)F)c2ccccc2C1=O	1.7 µM	4.1	1.85 µM	4.06	5.62 µM	19.5	1.41 µM	2.92	1.75 µM	3.17	1.74 µM	3.3 µM	1.51 µM	2.95 µM	3.15	10.4	1.85 µM	4.01	–	–
CC(=O)Nc1ccc(S(=O)(=O)N=S(C)C)cc1	–	> 100	–	> 100	–	> 100	–	> 100	–	> 100	–	> 100 µM	–	–	–	> 100	–	> 100	–	> 100
Cc1ccc(Cl)c(NS(=O)(=O)c2ccc(-c3cnc(C4CC4)o3)cc2)c1	0.0472 µM	34.8	0.412 µM	50	0.129 µM	> 100	0.0566 µM	20.3	0.288 µM	> 100	0.0382 µM	2.23 µM	0.399 µM	3.72 µM	0.0531	10.1	0.205 µM	> 72.7	1.03	28.1
O=C(CCC(=O)Nc1cccc(C(F)(F)F)c1)CC(=O)c1ccc2ccccc2c1	–	> 100	–	> 100	–	> 100	–	> 100	–	–	–	–	–	> 100 µM	–	> 100	–	> 100	–	> 100
COc1ccc(C(=O)c2cc3c(N)c(C(=O)Nc4cccc(Br)c4C)sc3nc2C)cc1	0.0456 µM	> 100	1.54 µM	> 100	0.0541 µM	> 100	0.0418 µM	> 100	0.194 µM	–	0.0223 µM	0.0585 µM	0.193 µM	1.81 µM	0.0562	> 100	0.0693 µM	> 100	0.173	> 100
CC[C@H](C)[C@H](NC(=O)[C@H]1CCCCN1C)C(=O)N(C)[C@H](C[C@@H](OC(C)=O)c1cccc(C(=O)N[C@@H](Cc2ccccc2)C[C@H](C)C(=O)O)n1)C(C)C	0.00038 µM and 0.0025 µM	> 25	0.000774 µM and 0.0025 µM	> 25	0.00138 µM and 0.0025 µM	> 25	0.0005 µM and < 0.0025 µM	< 0.0025	0.00286 µM and 0.0025 µM	> 25	0.000279 µM and < 0.0025 µM	0.00152 µM and < 0.0025 µM	0.000482 µM and 0.0025 µM	0.0193 µM and 0.00279 µM	–	–	0.00787 µM and 0.0025 µM	> 25	–	> 25
COc1cc(/C=C(\NC(=O)c2ccccc2)c2nc3ncncc3[nH]2)cc(OC)c1OC	–	> 100	–	> 100	–	> 100	–	> 100	–	–	–	–	–	> 100 µM	–	> 100	–	> 100	–	–
O=C(Nc1cc(Cl)ccc1O)c1ccccc1Nc1ccnc(C(F)(F)F)c1	2.51 µM	10	–	–	2.88 µM	10.3	–	–	3.69 µM	14.1	3.33 µM	11.3 µM	2.1 µM	4.27 µM	2.24	7.34	3.35 µM	> 100	2.11	9.17
N#C/C(=C1\OC(=N)C(c2ccccc2)C1=O)c1ccccc1 (stereo unspecified)	–	52.7	–	> 100	–	> 100	–	22.2	–	–	–	–	–	> 64.2 µM	–	> 96.6	–	31.8	–	> 100
CC1=CP(=O)(c2ccccc2)C=C(C)C1=C(Cl)Cl (stereo unspecified)	–	21.7	–	–	–	32.8	–	7.23	–	–	–	–	–	31.2 µM	–	–	–	–	–	9.68
O=C1C=C2CCCC2C(C(=O)O)(C(=O)O)C1 (stereo unspecified)	–	> 100	–	> 100	–	> 100	–	> 100	–	–	–	–	–	> 100 µM	–	> 100	–	–	–	–
CN(C)Cc1ccc(NC(=O)c2cncc(C#Cc3cnc(N)c4ncccc34)c2)cc1F	1.83 µM	3.53	14 µM	35.3	–	–	17.2 µM	53.9	1.77 µM	3.32	1.64 µM	3.14 µM	1.7 µM	3.29 µM	15.8	32.3	3.28 µM	11.4	–	–
CC1C=CC(C(N)C(=O)O)O1 (stereo unspecified)	–	> 100	–	> 100	–	> 100	–	> 100	–	–	–	–	–	> 100 µM	–	> 100	–	> 100	–	> 100
O=C(Nc1cc(F)c(F)cc1C(=O)O)c1ccc(-n2ccnc2)nn1	> 100 µM	> 100	> 100 µM	> 100	> 100 µM	> 100	–	–	> 100 µM	> 100	> 100 µM	> 100 µM	> 100 µM	> 100 µM	> 100	> 100	> 100 µM	> 100	> 100	> 100
Oc1ccc2ccccc2c1C=NCc1c(O)ccc2ccccc12	–	> 100	–	> 100	–	> 100	–	50.5	–	> 100	–	> 100 µM	–	> 100 µM	–	> 100	–	> 100	–	–
COc1cc2c(c(OC)c1OC)-c1ccc(SC)c(=O)cc1[C@@H](NC(=O)C(F)(F)F)CC2	–	> 100	–	–	–	> 100	–	< 0.01	–	> 100	–	–	–	0.138 µM	–	10.3	–	> 72.3	–	–
O=C(N/C(=C\c1ccccc1O)c1nc2ccccc2[nH]1)c1ccccc1	–	> 100	–	> 100	–	> 100	–	> 100	–	–	–	–	–	> 100 µM	–	> 100	–	> 100	–	–
C/C=C/C(=O)[O-].C/C=C/C(=O)[O-].N.N.N.N.[Co+3].[O-][Cl+3]([O-])([O-])[O-]	> 100 µM	> 100	> 100 µM	> 100	> 100 µM	> 100	83.9 µM	> 100	–	–	–	–	> 100 µM	> 100 µM	–	–	> 100 µM	> 100	–	–

Compound	GI50 (UACC-62 melanoma)	TGI (UACC-62 melanoma) [µM]	GI50 (SK-MEL-2 melanoma)	TGI (SK-MEL-2 melanoma) [µM]	GI50 (SNB-19 CNS)	TGI (SNB-19 CNS) [µM]	GI50 (NCI-H522 lung)	TGI (NCI-H522 lung) [µM]	GI50 (DU-145 prostate)	TGI (DU-145 prostate) [µM]	GI50 (MDA-MB-435)	TGI (MDA-MB-435)	GI50 (SK-MEL-5 melanoma)	TGI (SK-MEL-5 melanoma)	GI50 (CAKI-1 renal) [µM]	TGI (CAKI-1 renal) [µM]	GI50 (ACHN renal)	TGI (ACHN renal) [µM]	GI50 (NCI-H226 lung) [µM]	TGI (NCI-H226 lung) [µM]
O=C(N=c1nc(NC(=O)c2ccccc2)ss1)c1ccccc1	–	–	–	> 100	–	> 100	–	42.4	–	–	–	–	–	34.7 µM	–	75.8	–	31.6	–	> 100
CCC(C)C1=C(O)[N+]2([O-])Oc3ccc(C4=C(O)C(=O)C(c5ccc(O)cc5)=C(O)C4=O)cc3OC2(C(C)CC)C(=O)N1O (stereo unspecified)	5.68 µM	65.1	–	–	4.95 µM	83.6	19 µM	> 100	30.9 µM	> 100	9.77 µM	90.6 µM	6.82 µM	27.3 µM	3.77	30.4	11.6 µM	> 100	3.81	> 100
CCOC(=O)c1c(C)nc2c(c1N)/C(=C/c1ccccn1)C(=O)N2Cc1ccccc1	0.94 µM	1.96	1.16 µM	3.01	1.09 µM	2.49	1.06 µM	2.89	–	–	–	–	0.95 µM	1.92 µM	–	–	0.906 µM	1.76	–	–
CCN(CC)c1ccc(-c2cc(-c3cc(OC)c(OC)c(OC)c3)nc(N3CCC(O)CC3)c2C#N)cc1	0.264 µM	0.662	0.289 µM	0.889	1.72 µM	7.42	–	–	0.877 µM	14.6	0.272 µM	1.12 µM	0.156 µM	0.365 µM	0.0334	0.708	0.406 µM	> 42.5	0.756	5.77
CCCCCCCCCCCCCCCC(=O)OCCOCCOCCOCCOCCOC(=O)CCCCCCCCCCCCCCC	–	> 100	–	> 100	–	> 100	–	> 100	–	–	–	–	–	> 100 µM	–	> 100	–	> 100	–	> 100
CCCCNC(=S)OCCC(C)CCCC(C)C (stereo unspecified)	–	> 100	–	> 100	–	> 100	–	–	–	–	–	–	–	> 100 µM	–	> 100	–	> 100	–	–
Cc1ccc(N=C2N=C(N3CC(C)OC(C)C3)c3ccccc32)cc1 (stereo unspecified)	–	> 100	–	70.4	–	> 100	–	–	–	–	–	–	–	48.5 µM	–	51	–	> 100	–	> 100
N#CC1(C#N)C=CC(=C2OCC3CCCN23)C=C1 (stereo unspecified)	–	> 100	–	> 100	–	> 100	–	> 100	–	–	–	–	–	> 100 µM	–	> 100	–	> 100	–	> 100
C[N+](C)(C)c1cc[c]([Sn]([c]2ccc([N+](C)(C)C)cc2)([c]2ccc([N+](C)(C)C)cc2)[c]2ccc([N+](C)(C)C)cc2)cc1	> 100 µM	> 100	> 100 µM	> 100	> 100 µM	> 100	> 100 µM	> 100	–	–	–	–	> 100 µM	> 100 µM	–	–	> 100 µM	> 100	–	–
COc1ccc(O)cc1C(O)c1ccccc1 (stereo unspecified)	–	> 100	–	> 100	–	> 100	–	> 100	–	–	–	–	–	> 100 µM	–	> 100	–	> 100	–	> 100
Clc1ccc2c(c1)N(C1CCCN(Cc3ccccc3)C1)c1ccccc1S2 (stereo unspecified)	6.94 µM	> 100	–	–	6.02 µM	> 100	2.13 µM	6.3	4.03 µM	19.7	1.79 µM	3.72 µM	5.71 µM	25.3 µM	4.38	24	7.22 µM	> 100	22.6	> 100
COS(C)(=O)=O	–	> 2	–	> 2	–	> 2	–	> 2	–	> 2	–	> 2 µM	–	–	–	> 2	–	> 2	–	> 2
CCOC(=O)c1[nH]c2cc(OC)c(OC)cc2c1CN(C)C	–	> 100	–	> 100	–	> 100	–	–	–	–	–	–	–	> 100 µM	–	> 100	–	> 100	–	> 100
COc1ccc(/C=C/C(=O)c2c(-c3ccccc3)nn(C)c(=O)c2N2CCOCC2)cc1	–	> 100	–	–	–	> 100	–	> 100	–	–	–	–	–	> 100 µM	–	> 100	–	> 100	–	–
Nc1nc2c(-c3ccc([N+](=O)[O-])cc3)nnn2c2ccccc12	–	> 100	–	> 100	–	> 100	–	–	–	–	–	–	–	–	–	> 100	–	> 100	–	> 100
NCCCNc1nc2ccccc2c2c(=O)c3cccc(Cl)c3sc12	1.67 µM	3.17	1.88 µM	3.81	–	–	1.76 µM	3.6	1.74 µM	3.46	1.73 µM	3.12 µM	1.58 µM	2.94 µM	1.28	2.68	1.41 µM	2.79	–	–
O=C(Nc1ccc(Cl)cc1C(=O)O)c1ccc([N+](=O)[O-])cc1	–	45.6	–	16.9	–	> 100	–	–	–	–	–	–	–	48.7 µM	–	–	–	49.6	–	72.2
COCCc1n(Cc2ccc3ccccc3c2)c2ccccc2[n+]1Cc1ccc2ccccc2c1	0.384 µM	1.52	–	–	–	–	–	–	1.06 µM	2.33	0.41 µM	1.56 µM	0.371 µM	1.36 µM	–	–	1.61 µM	2.99	–	–
COc1ccc2c(c1)CCc1cc(OC)ccc1/[N+]([O-])=[N+]\2[O-]	–	30.6	–	43.8	–	39	–	13.7	–	38.1	–	32.2 µM	–	31.6 µM	–	34	–	26.3	–	–
